Measured values: patent US20190233906A1, “MUTANT STRAINS OF STAPHYLOCOCCUS AUREUS WITH MULTIPLE INACTIVATED TCS SYSTEMS” (priority 2015, published 2019)
Marks after values point to notes of the source that are not given here.

Key:
Type in all cases: cell-based, Staphylococcus aureus
[1] = system: S. aureus 8325; settings: strain 8325; on Antimicrobial susceptibility (R/S): key: R: resistant; S: susceptible
Experimental: (§1) Antibiotic sensitivity tests were performed at the University Clinic of Navarra. Antibiotics routinely used in clinic for treatment of S. aureus infections were tested by VITEK 2 system. • Growth Kinetics Analysis

[2] = system: S. aureus MW2; settings: strain MW2; further: key: R: resistant; S: susceptible
Experimental: as §1

[3] = system: S. aureus MW2 ΔXV; experiment: Antimicrobial susceptibility test (VITEK 2 system); settings: for Antimicrobial susceptibility (R/S): strain MW2 ΔXV; on Antimicrobial susceptibility (R/S): key: R: resistant; S: susceptible
Experimental: as §1

[4] = system: S. aureus 8325 ΔXV; experiment: Antimicrobial susceptibility test (VITEK 2 system); settings: for Susceptibility of 8325 ΔXV mutant compared with parental strain: 8325 ΔXV vs 8325; for Antimicrobial susceptibility (R/S) / MIC, Minimal inhibitory concentration: strain 8325 ΔXV; on Antimicrobial susceptibility (R/S): key: R: resistant; S: susceptible
Experimental: as §1

Structure (SMILES)	Antimicrobial susceptibility (R/S) [1]	Antimicrobial susceptibility (R/S) [2]	Antimicrobial susceptibility (R/S) [3]	Susceptibility of 8325 ΔXV mutant compared with parental strain [4]	Antimicrobial susceptibility (R/S) [4]	MIC, Minimal inhibitory concentration [1]	MIC, Minimal inhibitory concentration [4]	Susceptibility of MW2 ΔXV mutant compared with parental strain ([3]; MW2 ΔXV vs MW2)
CC1(C)S[C@@H]2[C@H](NC(=O)[C@H](N)c3ccccc3)C(=O)N2[C@H]1C(=O)O [Ampicillin]	R	R	R	higher susceptibility	S	–	–	–
CC[C@H]1OC(=O)[C@H](C)[C@@H](O[C@H]2C[C@@](C)(OC)[C@@H](O)[C@H](C)O2)[C@H](C)[C@@H](O[C@@H]2O[C@H](C)C[C@H](N(C)C)[C@H]2O)[C@](C)(O)C[C@@H](C)CN(C)[C@H](C)[C@@H](O)[C@]1(C)O [Azithromycin]	S	S	S	–	S	–	–	–
CC1(C)S[C@@H]2[C@H](NC(=O)Cc3ccccc3)C(=O)N2[C@H]1C(=O)O [Bencilpenicillin]	R	R	R	higher susceptibility	S	(0.25)	(0.12)	–
CC(=O)OCC1=C(C(=O)O)N2C(=O)[C@@H](NC(=O)Cc3cccs3)[C@H]2SC1 [Cefalotin]	S	R	R	–	S	–	–	–
CO[C@@]1(NC(=O)Cc2cccs2)C(=O)N2C(C(=O)O)=C(COC(N)=O)CS[C@@H]21 [Cefoxitin]	S	R	S	–	S	–	–	more susceptible
CO/N=C(\C(=O)N[C@@H]1C(=O)N2C(C(=O)O)=C(COC(N)=O)CS[C@H]12)c1ccco1 [Cefuroxime]	S	R	R	–	S	–	–	–
O=C(N[C@H](CO)[C@H](O)c1ccc([N+](=O)[O-])cc1)C(Cl)Cl [Chloramphenicol]	S	S	S	–	S	–	–	–
CC[C@H]1OC(=O)[C@H](C)[C@@H](O[C@H]2C[C@@](C)(OC)[C@@H](O)[C@H](C)O2)[C@H](C)[C@@H](O[C@@H]2O[C@H](C)C[C@H](N(C)C)[C@H]2O)[C@](C)(OC)C[C@@H](C)C(=O)[C@H](C)[C@@H](O)[C@]1(C)O [Clarithromycin]	S	S	S	–	S	–	–	–
CCC[C@@H]1C[C@@H](C(=O)N[C@@H]([C@H]2O[C@H](SC)[C@H](O)[C@@H](O)[C@H]2O)[C@H](C)Cl)N(C)C1 [Clindamycin]	S	S	S	–	S	–	–	–
Cc1onc(-c2ccccc2Cl)c1C(=O)N[C@@H]1C(=O)N2[C@@H]1SC(C)(C)[C@@H]2C(=O)O [Cloxacillin]	S	R	R	–	S	–	–	–
CC[C@H]1OC(=O)[C@H](C)[C@@H](O[C@H]2C[C@@](C)(OC)[C@@H](O)[C@H](C)O2)[C@H](C)[C@@H](O[C@@H]2O[C@H](C)C[C@H](N(C)C)[C@H]2O)[C@](C)(O)C[C@@H](C)C(=O)[C@H](C)[C@@H](O)[C@]1(C)O [Erithromycin]	S	S	S	–	S	–	–	–
C[C@@H]1O[C@@H]1P(=O)(O)O [Fosfomycin]	S	S	S	higher susceptibility	S	(16)^a	(≤8)^a	–
